Results taken from publication PMC11204760, “New Cyclic Pentapeptides from the Mangrove-Derived Aspergillus fumigatus GXIMD 03099” (Marine Drugs, 2024).
Converted amounts (≈) assume the structure as drawn. Where a SMILES comes first, the peptide text is derived from it. [ ]: non-standard residue; d: D form. dNMeF = CN[C@H](Cc1ccccc1)C(=O)O; Pip = O=C(O)[C@@H]1CCCCN1; 2Abz = Nc1ccccc1C(=O)O; Abu = CC[C@H](N)C(=O)O

Experiments:
[1] = test system: quorum-sensing; details: cited from earlier work
Description: (§1) Cyclic pentapeptides, a subclass of cyclic peptides, are usually constructed by five amino acid residues. To date, about 60 cyclic pentapeptides have been characterized. Among them, avellanins A–C were exclusively found in Hamigera avellanea, Hamigera ingelheimensis, and Aspergillus petrakii, respectively. […] During our continuing efforts to identify new bioactive metabolites from mangrove-derived fungi [[20],[21],[ ...

[2] = test system: Vibrio harveyi (ATCC 14126); format: cell-based; details: V. harveyi ATCC 14126, microplate assay; chloromycetin positive control
Experimental: Antibacterial activity was determined against nine pathogenic bacteria, including six Gram-positive bacteria—Methicillin-resistant Staphylococcus aureus (ATCC 43300), […], Staphylococcus albus (ATCC 8799), Staphylococcus aureus (ATCC 6538), Bacillus subtilis (ATCC 21332), and […] —and three Gram-negative bacteria—Vibrio parahaemolyticus (ATCC 17802), V. alginolyticus (ATCC 17749), and V. harveyi (ATCC 14126)—by the microplate assay method. Chloromycetin was used as the positive control.

[3] = cited from earlier work
Description: as §1

[4] = test system: newly hatched larvae of Culex quinquefasciatus; test: Insecticidal activity against newly hatched Culex quinquefasciatus larvae; format: in vivo; details: 25 ± 1 °C, 80% relative humidity, dead larvae recorded on 2nd, 4th, 6th and 8th days, two sets of replicates, azadirachtin positive control
Experimental: The insecticidal activity against Culex quinquefasciatus larvae was evaluated according to methods reported in the literature. Newly hatched larvae were housed at 25 ± 1 °C and 80% relative humidity. Two sets of replicates were set up with dimethyl sulfoxide as a negative control, azadirachtin as a positive control, and artificial feed as a blank control. The number of dead larvae was recorded on 2nd, 4th, 6th, and 8th days after treatment.

Molecule: avellanin C
- quorum-sensing inhibitory activity [1]: exhibits quorum-sensing inhibitory activity

Molecule: CC[C@@H]1NC(=O)[C@@H](C)NC(=O)[C@@H](Cc2ccccc2)N(C)C(=O)[C@@H]2CCCN2C(=O)c2ccccc2NC1=O [compound 4, avellanin G] (cyclo(P[dNMeF][dA][Abu][2Abz]))
- MIC [2]: 5.85 µM (≈ 3.12 µg/mL)

Molecule: L-Pro-Ant-L-Ile-D-Ala-N-Me-D-Phe (head to tail) [compound 5, avellanin A, known cyclic pentapeptide isolated from the fungus]
- effect on blood pressure [3]: elevates blood pressure

Molecule: avellanin B [compound 6]
- effect on activity of antineoplastic drugs [3]: improves the activity of antineoplastic drugs

Molecule: CC[C@H](C)[C@@H]1NC(=O)[C@@H](C)NC(=O)[C@@H](Cc2ccccc2)N(C)C(=O)[C@@H]2CCCCN2C(=O)c2ccccc2NC1=O [compound 2, avellanin E] (cyclo([Pip][dNMeF][dA]I[2Abz]))
- LC50, insecticidal activity [4]: 86.6 µM
